Patent US6346544B2, “Desmethyl tocopherols for protecting cardiovascular tissue” (Oklahoma Medical Research Foundation, priority 2000, dated 2002)

Key:
αKGDH [1] = test: αKGDH protection against SIN-1 nitrative stress in isolated mitochondria in vitro; format: biochemical, rat; details: 400 μM SIN-1, one hour
Description: FIG. 3 is a graph showing rat brain mitochondria exposed to 0.4 mM SIN-1 for 1 H after addition of tocopherol. (•)α-tocopherol; (▪)γ-tocopherol. The scale bars labeled [α]norm and [Y]norm indicate the normal endogenous quantities of α-tocopherol and γ-tocopherol, respectively, in human brain.
αKGDH is a rate-limiting enzyme of mitochondrial energy production which is diminished in conditions of vascular ischemia (53-58); augmentation of the enzyme with α-ketoglutarate has been found beneficial and α-ketoglutarate is now included as a component in cardioplegia fluid to improve recovery after heart surgery (59). We undertook to determine whether γT protects αKGDH against nitrative stress in vitro. Mitochondria were isolated from adult rat brain then sonicated briefly in the presence of either αT or γT, or an ethanol vehicle. Mitochondria were then exposed to SIN-1, which generates NO and superoxide simultaneously at a known rate (7). Combination of NO and superoxide yields ONOO^−. in situ (discussed above).

[2] = 400-800 IU/day, 18 months, cited from earlier work
[3] = 100 mg/kg/day for 10 days; 29% FeCl3 patch; cited from earlier work
[4] = median intake 419 vs. 6.4 IU/day, 39,910 men; cited from earlier work
[5] = chronic αT supplementation; cited from earlier work
[6] = associated with a 40% increase in plasma αT; cited from earlier work
[7] = system: ECV304 human endothelial cells; details: 10 μM α-T, 10 μM γ-T or 5 μM of each; 19 hours preincubation; 5 mM SIN-1; 24 hours
Description: Cultured ECV304 human endothelial cells were exposed to SIN-1 in the presence of 10 μM α-T, 10 μM γ-T or 5 μM of each (FIG. 5). Tocopherols were incubated with the cells for 19 hours prior to addition of SIN-1. Viability was assayed 24 hours later using a standard tetrazolium (MTT) reduction assay.

[8] = cited from earlier work
[9] = rat, in vivo
Description: Rat pups were injected intraperitoneally (I.P.) with αT or γT in an olive oil vehicle every other day for 30 days beginning 2 days after birth; control animals received vehicle only. Olive oil was chosen as a vehicle because of the low tocopherol content in this particular vegetable oil. […] One half of each animal group was injected with a septic dose of LPS (2.5 mg/kg, I.P). After 24 H, animals were killed and organs collected. αKGDH was assayed in heart tissue and tocopherols were measured by HPLC-ECD/PDA.

[10] = 35,000 postmenopausal women, 7 years; supplements alone or with dietary intake; cited from earlier work
[11] = 400 IU/day natural αT, 4.5 years, 9541 subjects; cited from earlier work
[12] = plasma concentrations of tocopherols and 5-NO2-γ-tocopherol in volunteers; format: in vivo, human; details: mean ± SEM
Source text: Smoking is recognized as a major contributing factor to heart disease and γ-T reportedly decreases more than α-T in smokers. Hypertension is also a strong risk factor for heart disease. […] Seven subjects indicated a chronic hypertensive condition. As outlined in Table I, γ-tocopherol tended to decrease in hypertensive subjects while nitration products tended to increase in both smokers and hypertensive subjects. This was the trend regardless of whether the tocopherol concentrations were normalized to plasma triglycerides (Table I).

platelets [13] = test: platelet aggregation in vitro (PRP, aggregometer); format: cell-based, human; details: 500 μM α-tocopherol or 50 μM γ-tocopherol, 1 H preincubation
Description: […] inhibits platelet aggregation in vitro and in vivo, apparently through antagonism of protein kinase C (PKC) (60-63). Concentrations of αT necessary to inhibit aggregation in vitro are on the order of 500 μM (60-63), or approximately 10-fold higher than achieved in vivo. The concentration difference between in vitro and in vivo efficacy has been rationalized on the basis of incomplete tocopherol incorporation into membranes during in vitro incubation (63). Nonetheless, subjects supplemented with oral αT have diminished platelet aggregation (63). We therefore sought to investigate the ability of γ-tocopherol to inhibit platelet aggregation. PRP was obtained from two volunteers. Platelets were stimulated to aggregate with ADP, thrombin receptor activating peptide (TRAP) or the PKC agonist phorbol myristyl acetate (PMA) and aggregation was measured using a 4-channel clinical aggregometer. Specific platelet samples were preincubated with vehicle, αT, γT or 5-NO2-γ-tocopherol for 1 H prior to stimulation. Tocopherol concentrations were set at 10-fold excess to average PRP levels based on the precedent of previous in vitro aggregation experiments that used αT as an inhibitor (60-63).

[14] = own supplementation, 100 mg/kg/day, 10 days; cited from earlier work
platelets [15] = details: cited from earlier work
[16] = 50 mg/kg supplement, 5.3 years follow-up; cited from earlier work
αKGDH [17] = test: heart αKGDH activity after tocopherol supplementation, with or without LPS challenge; format: in vivo, rat; details: animals not subjected to LPS stress; 15 mg tocopherol I.P. over 30 days
Description: Rats were injected with 15 mg of tocopherol over the first 1 month of life; specific groups were then challenged with a septic dose of LPS and heart αKGDH activity was assayed 24 H later. *p<0.1 relative to vehicle; †p<0.05 relative to vehicle. N=5/group.
Rat pups were injected intraperitoneally (I.P.) with αT or γT in an olive oil vehicle every other day for 30 days beginning 2 days after birth; control animals received vehicle only. […] A total of 15 mg tocopherol was delivered to each animal over the 30 day period; animal weight at the end of the period was approximately 90 g for all three groups. One half of each animal group was injected with a septic dose of LPS (2.5 mg/kg, I.P). After 24 H, animals were killed and organs collected. αKGDH was assayed in heart tissue and tocopherols were measured by HPLC-ECD/PDA.

[18] = upper vs lowest quintile of αT consumption, 87,425 nurses, 8 years; cited from earlier work

Compound: Cc1c(C)c2c(c(C)c1O)CC[C@@](C)(CCC[C@H](C)CCC[C@H](C)CCCC(C)C)O2 [α-tocopherol, reference compound]
- concentration offering as much αKGDH protection as 50-100 nM γT (αKGDH [1]): 1 to 10 µM
- tocopherol concentration of maximal αKGDH protection (αKGDH [1]; rat brain mitochondria): 1 µM
- reduction in nonfatal myocardial infarction ([2]; 2002 male smokers with CAD): 77%
- increase in all-cause mortality [2]: 29%
- delay/increase of time to occlusive thrombus [3]: 25%
- diminished risk of CAD [4]: 39%
- increase of plasma levels of αT [5]: 300-400%
- lower mortality rate (ischemic heart disease) [6]: 84%
- effect on SIN-1 toxicity (MTT viability) [7]: no apparent effect
- increase of plasma αT ([8]; 50 IU/day supplementation): 50%
- effect on death from hemorrhagic stroke ([8]; 50 IU/day, 5-8 years): increases death from hemorrhagic stroke
- effect on total mortality of smokers ([8]; 50 IU/day, 5-8 years): does not decrease total mortality
- heart tissue tocopherol concentration, controls [9]: 23±12 ng/mg protein
- benefit of supplements on cardiovascular death [10]: no benefit
- effect on primary or secondary cardiovascular outcomes or death [11]: no effect
- plasma concentration ([12]; hypertensives, N = 7): 23.1 ± 12.2 μg/mL plasma
- plasma concentration normalized to triglyceride ([12]; hypertensives, N = 7): 21.9 ± 5.9 μg/mg triglyceride
- plasma concentration ([12]; population, N = 54): 18.3 ± 2.6 μg/mL plasma
- plasma concentration normalized to triglyceride ([12]; population, N = 54): 34.2 ± 14.2 μg/mg triglyceride
- plasma concentration ([12]; smokers, N = 7): 24.9 ± 9.2 μg/mL plasma
- plasma concentration normalized to triglyceride ([12]; smokers, N = 7): 21.5 ± 4.5 μg/mg triglyceride
- Platelet Aggregation (% maximum) (platelets [13]; ADP 20 μM, Subject 1): 85 % maximum
- Platelet Aggregation (% maximum) (platelets [13]; ADP 20 μM, Subject 2): 72 % maximum
- Platelet Aggregation (% maximum) (platelets [13]; PMA 200 nM, Subject 1): 74 % maximum
- Platelet Aggregation (% maximum) (platelets [13]; PMA 200 nM, Subject 2): 34 % maximum
- Platelet Aggregation (% maximum) (platelets [13]; TRAP 20 μM, Subject 1): 44 % maximum
- Platelet Aggregation (% maximum) (platelets [13]; TRAP 20 μM, Subject 2): 75 % maximum
- increase of plasma level above baseline [14]: 2 fold
- concentration necessary to inhibit aggregation in vitro (platelets [15]): ~500 µM
- effect on MI or mortality [16]: no effect
- increase of mean heart αKGDH activity (αKGDH [17]): 40%
- diminished risk of coronary disease [18]: 34%
